# Source: article PMC9995496, “A screen for MeCP2-TBL1 interaction inhibitors using a luminescence-based assay” (Scientific Reports, 2023)
# Counter-ions that a name gives are not always drawn. Numbered stars: 1 amine (or outer) side, 2 acyl side, 3 side chain; on linkers, the order of the positions; unused ones are H or OH. Bridge positions count the residues as written; N and C are the ends. Square brackets hold non-standard residues; d marks the D form. Peptide text beside a SMILES is read from it. * marks the point of attachment. hTyr(3S-OH,4S-OH,3'-OSO3H) = N[C@H](C(=O)O)[C@H](O)[C@@H](O)c1ccc(O)c(OS(=O)(=O)O)c1; Orn(4R-OH,5R-OH) = O=C([C@H](C[C@@H](O)[C@@H](O)N[*:3])N[*:1])[*:2]; Pro(3S-OH,4S-Me) = C[C@H]1CN[C@H](C(=O)O)[C@H]1O; X1 = CCCCCOc1ccc(-c2cc(-c3ccc(C(=O)*)cc3)no2)cc1; Gln(3R-OH) = NC(=O)C[C@@H](O)[C@H](N)C(=O)O; Hyp = O=C(O)[C@@H]1C[C@@H](O)CN1
# System: PRKACA-PRKAR2A interaction (SmBiT-PRKACA / LgBiT-PRKAR2A), protein kinase A
# Parameters: NanoLuc complementation counter-screen in cell extract, PRKACA with PRKAR2A, loss of luminescence, detects NanoLuc interference
# Conditions: 0.5 h, 20 µM; inhibitor
row,SMILES,Inh (PKA) [%]
1,"COc1cc2c3cc1Oc1c(OC)c(OC)cc4c1[C@@H](Cc1cccc(c1)Oc1ccc(c(O)c1)C[C@@H]3N(C)CC2)N(C)CC4 [UM0141561:06, Berbamine hydrochloride]",0.4662

# Same assay, conditions: counter-screen for NanoLuc interference, 0.5 h, 20 µM, inhibitor, Inh (PKA)
row,SMILES,Inh (PKA) [%]
1,"CC(=O)O[C@@]12CO[C@@H]1C[C@H](O)[C@@]1(C)C(=O)[C@H](O)C3=C(C)[C@@H](OC(=O)[C@H](O)[C@@H](NC(=O)OC(C)(C)C)c4ccccc4)C[C@@](O)([C@@H](OC(=O)c4ccccc4)[C@H]21)C3(C)C [UM0141543:01, Docetaxel Trihydrate]",1.786
2,"CN1CCc2nc(C(=O)N[C@@H]3C[C@@H](C(=O)N(C)C)CC[C@@H]3NC(=O)C(=O)Nc3ccc(Cl)cn3)sc2C1 [UM0141545:01, Edoxaban]",0.988
3,"CN1CCc2nc(C(=O)N[C@@H]3C[C@@H](C(=O)N(C)C)CC[C@@H]3NC(=O)C(=O)Nc3ccc(Cl)cn3)sc2C1 [UM0141546:01, Edoxaban tosylate monohydrate]",2.853
4,"COc1ccc2c3c1O[C@H]1C[C@@H](O)C=C[C@@]31CCN(C)C2 [UM0141554:01, Galanthamine]",0.2093
5,"CS(=O)(=O)N1CCN(Cc2cc3nc(-c4cccc5[nH]ncc45)nc(N4CCOCC4)c3s2)CC1 [UM0141556:01, GDC-0941 dimethanesulfonate]",7.081

# More lines, now with the values ahead:
row,Inh (PKA) [%],SMILES
1,44.92,"COc1ccc(S(=O)(=O)N(CCO)c2ccccc2CN(C)C/C=C/c2ccc(Cl)cc2)cc1 [UM0141574:01, KN-93]"
2,3.66,"O=C(Cc1ccc(-c2ccc(OCCN3CCOCC3)cc2)cn1)NCc1ccccc1 [UM0141575:01, KX2-391 dihydrochloride]"
3,9.112,"c1ccc2c(-c3cnn4cc(-c5ccc(N6CCNCC6)cc5)cnc34)ccnc2c1 [UM0141577:01, LDN193189 Hydrochloride]"
4,0.436,"CCOC(=O)C1=C[C@@H](OC(CC)CC)[C@H](NC(C)=O)[C@@H](N)C1 [UM0141595:01, Oseltamivir]"

# Same assay, conditions: counter-screen for NanoLuc interference; 0.5 h, 20 µM; inhibitor
row,SMILES,Inh (PKA) [%]
1,"CCN(CC)CCN(Cc1ccc(-c2ccc(C(F)(F)F)cc2)cc1)C(=O)Cn1c(SCc2ccc(F)cc2)nc(=O)c2c1CCC2 [UM0141541:01, Darapladib]",8.505
2,"NC(=O)c1ccccc1Nc1ccnc(Nc2cccc(O)c2)n1 [UM0141542:01, DB07268]",39.9
3,"CCCCc1oc2ccc(NS(C)(=O)=O)cc2c1C(=O)c1ccc(OCCCN(CCCC)CCCC)cc1 [UM0141544:01, Dronedarone]",6.648
4,"COc1cc2c(cc1OC)CN(CCc1ccc(NC(=O)c3cccc4c(=O)c5cccc(OC)c5[nH]c34)cc1)CC2 [UM0141547:01, Elacridar]",22.37
5,"CN1CCC(COc2cnc(-c3cccc(Cn4nc(-c5cccc(C#N)c5)ccc4=O)c3)nc2)CC1 [UM0141548:01, EMD-1214063]",7.378
6,"CCc1c(C(=O)NNC(=O)C(O)c2cc(F)cc(F)c2)ccc(O)c1C (stereo not shown) [UM0141549:01, EMD638683]",19.67
7,"Cc1ccc(-c2ncc(Cl)cc2-c2ccc(S(C)(=O)=O)cc2)cn1 [UM0141550:01, Etoricoxib]",2.792
8,"Cc1cc([N+](=O)[O-])ccc1NS(=O)(=O)c1cc(Cl)ccc1Cl [UM0141551:01, FH535]",77.24
9,"CC(C)n1c(/C=C/[C@H](O)C[C@H](O)CC(=O)O)c(-c2ccc(F)cc2)c2ccccc21 [UM0141552:01, Fluvastatin]",9.856
10,"CC(C)=CCC[C@]1(C)C=Cc2c(O)c3c(c(CC=C(C)C)c2O1)O[C@]12C(=C[C@@H]4C[C@H]1C(C)(C)O[C@@]2(C/C=C(/C)C(=O)O)C4=O)C3=O [UM0141555:01, Gambogic Acid]",4.588
11,"CC[C@H](C)n1cc(C)c2c(C(=O)NCc3c(C)cc(C)[nH]c3=O)cc(-c3ccc(N4CCNCC4)nc3)cc21 [UM0141557:01, GSK126]",5.02
12,"Cn1cc(-c2ccc3c(c2)CCN3C(=O)Cc2cccc(C(F)(F)F)c2)c2c(N)ncnc21 [UM0141558:01, GSK2606414]",15.1
13,"CCCc1cc(C)[nH]c(=O)c1CNC(=O)c1cc(-c2ccnc(N3CCN(C)CC3)c2)cc2c1cnn2C(C)C [UM0141559:01, GSK343]",8.178
14,"N=C(N)NC(=O)Cc1c(Cl)cccc1Cl [UM0141560:01, Guanfacine hydrochloride]",4.541
15,"O=S(=O)(c1cccc2c(O)nccc12)N1CCCNCC1 [UM0141561:01, Hydroxyfasudil hydrochloride]",27.19
16,"O[C@@H](c1cc(C(F)(F)F)nc2c(C(F)(F)F)cccc12)[C@H]1CCCCN1 [UM0141561:02, Mefloquine hydrochloride]",15.66
17,"CCCCS(=O)(=O)N[C@@H](Cc1ccc(OCCCCC2CCNCC2)cc1)C(=O)O [UM0141561:03, Tirofiban hydrochloride monohydrate]",1.888
18,"N#Cc1ccc2[nH]cc(CCCCN3CCN(c4ccc5oc(C(N)=O)cc5c4)CC3)c2c1 [UM0141561:04, Vilazodone Hydrochloride]",10.91
19,"COC(=O)[C@@H](N)CCCNC(=N)N[N+](=O)[O-] [UM0141561:05, L-NAME hydrochloride]",-1.626
20,"NS(=O)(=O)NCCNc1nonc1C(=Nc1ccc(F)c(Br)c1)NO [UM0141562:01, IDO inhibitor 1]",11.46
21,"NS(=O)(=O)NCCNc1nonc1/C(=N/O)Nc1ccc(F)c(Br)c1 [UM0141562:02, INCB-024360]",8.041
22,"C/C(=C\c1csc(C)n1)[C@@H]1C[C@@H]2O[C@]2(C)CCC[C@H](C)[C@H](O)[C@@H](C)C(=O)C(C)(C)[C@@H](O)CC(=O)N1 [UM0141566:01, Ixabepilone]",1.607
23,"O=C1CCC[C@@H]2[C@H]3CCCN4CCC[C@@H](CN12)[C@@H]34 [UM0141584:01, Matrine]",1.794
24,"CCCCCOc1ccc(-c2cc(-c3ccc(C(=O)N[C@H]4C[C@@H](O)[C@@H](O)NC(=O)[C@@H]5[C@@H](O)[C@@H](C)CN5C(=O)[C@H]([C@H](O)CC(N)=O)NC(=O)[C@H]([C@H](O)[C@@H](O)c5ccc(O)c(OS(=O)(=O)O)c5)NC(=O)[C@@H]5C[C@@H](O)CN5C(=O)[C@H]([C@@H](C)O)NC4=O)cc3)no2)cc1 [UM0141585:01, Micafungin sodium] (X1-[Orn(4R-OH,5R-OH)]T[Hyp][hTyr(3S-OH,4S-OH,3'-OSO3H)][Gln(3R-OH)][Pro(3S-OH,4S-Me)]; lactam 1-C)",7.755

# Now from value to compound:
row,Inh (PKA) [%],SMILES
1,6.368,"COc1cc(N2CCOCC2)ccc1NC(=O)c1csc(-c2cccnc2)n1 [UM0141564:01, IRAK inhibitor 6]"
2,27.82,"Cc1ccc2nc(NC(=O)CSc3nc4c(c(=O)n3-c3ccccc3)SCC4)sc2c1 [UM0141565:01, IWP-2]"
3,3.268,"COc1cc2ncnc(Nc3ccc(O)cc3)c2cc1OC [UM0141567:01, JANEX-1]"
4,12.62,"Cc1cc(NC(=O)c2cccc(NC(=O)/C=C/CN(C)C)c2)ccc1Nc1nccc(-c2cccnc2)n1 [UM0141569:01, JNK-IN-8]"
5,9.964,"O=C1NCCSc2c1sc1ccc(O)cc21 [UM0141570:01, kb NB 142-70]"
6,7.839,"N=C(N)SCCc1ccc(OCc2ccc([N+](=O)[O-])cc2)cc1 [UM0141571:01, KB-R7943 mesylate]"
7,11.8,"COc1cc(Oc2ccnc3cc(OC)c(OC)cc23)ccc1NC(=O)NC(C)c1nccs1 (stereo not shown) [UM0141572:01, Ki20227]"
8,16.02,"COc1ccc(S(=O)(=O)Nc2ccccc2CN(C)C/C=C/c2ccc(Cl)cc2)cc1 [UM0141573:01, KN-92 phosphate]"
9,0.904,"CN[C@@H](C)C(=O)N[C@H](C(=O)N1CCC[C@H]1c1nc(C(=O)c2ccc(F)cc2)cs1)C1CCCCC1 [UM0141576:01, LCL161]"
10,1.236,"COC(=O)N[C@H](C(=O)N1CC2(CC2)C[C@H]1c1nc(-c2ccc3c(c2)C(F)(F)c2cc(-c4ccc5[nH]c([C@@H]6[C@H]7CC[C@H](C7)N6C(=O)[C@@H](NC(=O)OC)C(C)C)nc5c4)ccc2-3)c[nH]1)C(C)C [UM0141578:01, Ledipasvir]"
11,0.3774,"CC1(C)O[C@H]2CC(=O)OC[C@]23[C@H]2CC[C@@]4(C)[C@H](c5ccoc5)OC(=O)[C@H]5O[C@]54[C@]2(C)C(=O)C[C@@H]13 [UM0141579:01, Limonin]"
12,12.15,"COc1cc(C(=O)N2CCC(N3CCN(C)CC3)CC2)ccc1Nc1ncc2c(n1)N(C)c1ccccc1C(=O)N2C [UM0141580:01, LRRK2-IN-1]"
13,40.49,"O=C1NC(=O)C(c2cnc3ccccn23)=C1c1cn2c3c(cc(F)cc13)CN(C(=O)N1CCCCC1)CC2 [UM0141581:01, LY2090314]"
14,33.02,"Cc1ccc(C(=O)Nc2ccc(Oc3cc4cnn(C)c4cc3-c3cn[nH]c3)c(F)c2)c(=O)n1-c1ccc(F)cc1 [UM0141582:01, LY2801653]"
15,40.12,"C[C@@H](Oc1ccc2[nH]nc(/C=C/c3cnn(CCO)c3)c2c1)c1c(Cl)cncc1Cl [UM0141583:01, LY2874455]"
16,5.692,"NC(=O)c1cccc2cn(-c3ccc([C@@H]4CCCNC4)cc3)nc12 [UM0141586:01, MK-4827]"
17,6.735,"C=C[C@@H]1C[C@]1(NC(=O)[C@@H]1C[C@@H]2CN1C(=O)[C@H](C(C)(C)C)NC(=O)O[C@@H]1C[C@H]1CCCCCc1nc3ccc(OC)cc3nc1O2)C(=O)NS(=O)(=O)C1CC1 [UM0141587:01, MK-5172]"
18,5.314,"COc1c(Cl)cc2c([nH]c3cnccc32)c1NC(=O)c1cccnc1C [UM0141589:01, MLN120B]"
19,3.843,"Cc1c(O)cccc1C(=O)N[C@@H](CSc1ccccc1)[C@H](O)CN1C[C@H]2CCCC[C@H]2C[C@H]1C(=O)NC(C)(C)C [UM0141590:01, Nelfinavir Mesylate]"
20,3.406,"CNC(=O)c1c(-c2ccc(F)cc2)oc2cc(N(CCO)S(C)(=O)=O)c(C3CC3)cc12 [UM0141591:01, Nesbuvir]"
21,80.65,"C[C@H](Cc1ccc(O)c(O)c1)[C@@H](C)Cc1ccc(O)c(O)c1 [UM0141592:01, Nordihydroguaiaretic acid]"
